Data on 27 compounds can be found in the Kinase Knowledgebase extract (Sharma et al. 2016).

The IC50 is the point on the concentration scale where inhibition reaches its midpoint. Read a high IC50 as weaker potency in that assay.

One assay concerns the target PIK3CB (Human) (UniProt P42338). Description: Assessment of PIK3CB Kinase Activity.
For a further assay, the target named is PIK3CD (Human) (UniProt O00329). The assay is described as follows: Assessment of PIK3CD Kinase Activity.
Another assay addresses PIK3CA (human) (UniProt P42336). Description: Assessment of PIK3CA Kinase Activity.

Chain of PIK3CA (human) (P42336 whole entry, looked up): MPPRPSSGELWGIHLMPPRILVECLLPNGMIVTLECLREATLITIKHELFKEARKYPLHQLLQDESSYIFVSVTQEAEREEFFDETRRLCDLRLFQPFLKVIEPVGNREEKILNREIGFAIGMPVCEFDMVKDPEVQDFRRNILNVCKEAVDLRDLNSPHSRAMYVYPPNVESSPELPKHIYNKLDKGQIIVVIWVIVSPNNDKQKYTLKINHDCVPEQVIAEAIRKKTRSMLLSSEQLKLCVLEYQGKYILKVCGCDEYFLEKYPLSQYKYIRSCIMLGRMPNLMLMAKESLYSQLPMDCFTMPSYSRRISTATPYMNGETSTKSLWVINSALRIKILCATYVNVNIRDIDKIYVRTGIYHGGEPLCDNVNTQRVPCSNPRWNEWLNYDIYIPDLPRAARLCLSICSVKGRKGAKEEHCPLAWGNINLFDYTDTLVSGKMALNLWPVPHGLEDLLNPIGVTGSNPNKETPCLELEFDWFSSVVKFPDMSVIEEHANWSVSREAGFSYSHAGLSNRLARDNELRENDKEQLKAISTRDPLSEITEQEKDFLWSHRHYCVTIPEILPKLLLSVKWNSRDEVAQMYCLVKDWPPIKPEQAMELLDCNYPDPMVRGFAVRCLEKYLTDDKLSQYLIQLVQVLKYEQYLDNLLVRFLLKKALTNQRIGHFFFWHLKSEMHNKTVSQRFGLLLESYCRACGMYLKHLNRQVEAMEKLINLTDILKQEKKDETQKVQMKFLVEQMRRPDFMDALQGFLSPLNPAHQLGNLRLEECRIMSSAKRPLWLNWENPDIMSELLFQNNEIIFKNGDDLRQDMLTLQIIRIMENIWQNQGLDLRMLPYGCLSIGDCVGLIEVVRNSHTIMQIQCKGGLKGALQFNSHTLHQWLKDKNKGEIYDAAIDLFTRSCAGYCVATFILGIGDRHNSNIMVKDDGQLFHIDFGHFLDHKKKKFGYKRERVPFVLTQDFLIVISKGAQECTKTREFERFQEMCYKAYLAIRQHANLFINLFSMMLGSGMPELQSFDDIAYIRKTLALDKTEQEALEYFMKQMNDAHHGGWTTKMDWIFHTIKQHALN
Chain of PIK3CB (Human) (P42338 whole entry, looked up): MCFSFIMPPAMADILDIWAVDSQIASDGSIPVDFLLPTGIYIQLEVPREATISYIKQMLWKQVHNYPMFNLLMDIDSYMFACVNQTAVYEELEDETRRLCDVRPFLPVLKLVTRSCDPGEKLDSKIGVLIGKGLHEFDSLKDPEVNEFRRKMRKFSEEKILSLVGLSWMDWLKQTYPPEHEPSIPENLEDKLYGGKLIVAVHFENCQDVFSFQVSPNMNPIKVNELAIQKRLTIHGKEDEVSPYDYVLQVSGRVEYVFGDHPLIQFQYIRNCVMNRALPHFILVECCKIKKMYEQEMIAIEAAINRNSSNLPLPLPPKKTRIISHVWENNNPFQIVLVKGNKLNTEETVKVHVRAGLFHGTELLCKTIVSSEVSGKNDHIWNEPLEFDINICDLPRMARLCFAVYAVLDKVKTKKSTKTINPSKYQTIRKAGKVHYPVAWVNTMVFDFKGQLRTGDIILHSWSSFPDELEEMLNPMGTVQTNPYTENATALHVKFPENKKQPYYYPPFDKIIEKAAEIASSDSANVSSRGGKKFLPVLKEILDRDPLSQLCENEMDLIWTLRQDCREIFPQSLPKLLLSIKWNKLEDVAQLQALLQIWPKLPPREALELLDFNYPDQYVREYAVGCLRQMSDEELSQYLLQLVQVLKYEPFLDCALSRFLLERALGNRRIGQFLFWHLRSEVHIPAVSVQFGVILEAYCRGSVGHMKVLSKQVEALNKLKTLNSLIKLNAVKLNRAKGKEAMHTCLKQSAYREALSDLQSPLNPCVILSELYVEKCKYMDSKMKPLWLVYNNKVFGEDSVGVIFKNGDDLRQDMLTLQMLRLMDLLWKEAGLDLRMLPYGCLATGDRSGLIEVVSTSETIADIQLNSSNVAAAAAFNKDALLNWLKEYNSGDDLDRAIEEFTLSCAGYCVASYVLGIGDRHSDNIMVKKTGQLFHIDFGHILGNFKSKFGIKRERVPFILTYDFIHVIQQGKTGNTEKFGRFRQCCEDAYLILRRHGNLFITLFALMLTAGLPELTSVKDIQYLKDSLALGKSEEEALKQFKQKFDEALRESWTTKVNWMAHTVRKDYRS
Chain of PIK3CD (Human) (O00329 whole entry, looked up): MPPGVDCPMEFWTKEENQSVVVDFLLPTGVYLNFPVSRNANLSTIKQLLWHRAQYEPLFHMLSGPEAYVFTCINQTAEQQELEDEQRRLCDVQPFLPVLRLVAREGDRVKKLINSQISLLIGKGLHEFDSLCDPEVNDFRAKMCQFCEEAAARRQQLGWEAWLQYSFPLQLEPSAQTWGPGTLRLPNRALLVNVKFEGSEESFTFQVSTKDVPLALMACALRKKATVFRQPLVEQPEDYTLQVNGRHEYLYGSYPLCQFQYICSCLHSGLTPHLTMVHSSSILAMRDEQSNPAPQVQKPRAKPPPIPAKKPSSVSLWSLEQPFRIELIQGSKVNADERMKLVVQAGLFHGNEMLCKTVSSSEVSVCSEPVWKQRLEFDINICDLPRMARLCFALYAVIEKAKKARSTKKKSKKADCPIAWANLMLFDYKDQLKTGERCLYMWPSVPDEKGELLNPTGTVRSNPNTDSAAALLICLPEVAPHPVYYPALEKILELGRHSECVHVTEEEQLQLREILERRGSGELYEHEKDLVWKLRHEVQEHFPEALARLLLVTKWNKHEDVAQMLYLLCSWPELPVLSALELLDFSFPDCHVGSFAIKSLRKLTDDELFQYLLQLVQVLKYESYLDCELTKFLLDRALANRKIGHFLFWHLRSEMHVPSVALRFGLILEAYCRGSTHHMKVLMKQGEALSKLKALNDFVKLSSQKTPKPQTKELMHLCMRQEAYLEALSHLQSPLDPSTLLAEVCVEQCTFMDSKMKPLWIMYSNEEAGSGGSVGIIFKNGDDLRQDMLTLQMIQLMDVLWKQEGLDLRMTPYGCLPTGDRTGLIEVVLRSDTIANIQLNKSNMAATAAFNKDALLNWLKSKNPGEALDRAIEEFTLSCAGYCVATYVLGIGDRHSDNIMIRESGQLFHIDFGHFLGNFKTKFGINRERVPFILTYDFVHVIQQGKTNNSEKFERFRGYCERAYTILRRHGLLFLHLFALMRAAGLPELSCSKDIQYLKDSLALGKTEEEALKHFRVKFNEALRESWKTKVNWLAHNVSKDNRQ

With `COc1cccc2c1nc(C(F)F)n2-c1nc(Nc2cncnc2)nc(N2CCOCC2)n1`, the IC50 on PIK3CB (Human) was 0.1 to 1 µM; on PIK3CD (Human), under 0.1 µM; against PIK3CA (human), under 0.1 µM.
Turning to `COc1cccc2c1nc(C(F)F)n2-c1nc(Nc2ccc(N)nc2)nc(N2CCOCC2)n1`, the results for the IC50 against PIK3CB (Human), at PIK3CD (Human) and against PIK3CA (human) were 0.1 to 1 µM, under 0.1 µM and under 0.1 µM, respectively.
With `FC(F)c1nc2ccccc2n1-c1nc(Nc2ccncn2)nc(N2CCOCC2)n1`, the IC50 against PIK3CD (Human) and against PIK3CA (human) was under 0.1 µM each time.
`FC(F)c1nc2ccccc2n1-c1nc(Nc2cccnc2)nc(N2CCOCC2)n1`: the IC50 at PIK3CB (Human), on PIK3CD (Human) and against PIK3CA (human) was under 0.1 µM in each case.
Take `COc1cccc2c1nc(C(F)F)n2-c1nc(Nc2ccncn2)nc(N2CCOCC2)n1`: the IC50 at PIK3CB (Human) was 0.1 to 1 µM; on PIK3CD (Human) it was under 0.1 µM; on PIK3CA (human), under 0.1 µM.
For the compound `COc1ccncc1Nc1nc(N2CCOCC2)nc(-n2c(C(F)F)nc3c(OC)cccc32)n1`, the values for the IC50 against PIK3CB (Human), against PIK3CD (Human) and at PIK3CA (human) were 0.1 to 1 µM, under 0.1 µM and under 0.1 µM, respectively.
As to `FC(F)c1nc2ccccc2n1-c1nc(NCc2cccnc2)nc(N2CCOCC2)n1`, the concentration for half-maximal inhibition (IC50) at PIK3CB (Human) is 0.1 to 1 µM; against PIK3CD (Human), under 0.1 µM; on PIK3CA (human) it was 0.1 to 1 µM.
With `FC(F)c1nc2ccccc2n1-c1nc(NCc2ccccc2)nc(N2CCOCC2)n1`, the IC50 against PIK3CB (Human) is under 0.1 µM; against PIK3CD (Human), under 0.1 µM; against PIK3CA (human), 0.1 to 1 µM.
As for `COc1cccc2c1nc(C(F)F)n2-c1nc(N2CCOCC2)nc(-n2cccn2)n1`, the IC50 against PIK3CD (Human) and on PIK3CA (human) was under 0.1 µM each time.
For the compound `CN(Cc1ccccc1)c1nc(N2CCOCC2)nc(-n2c(C(F)F)nc3ccccc32)n1`, the IC50 was 0.1 to 1 µM on PIK3CB (Human) and under 0.1 µM against PIK3CD (Human).
On to `COc1cccc2c1nc(C(F)F)n2-c1nc(Nc2cnc(N(C)CCCN(C)C)nc2)nc(N2CCOCC2)n1`, for which the IC50 against PIK3CD (Human) and on PIK3CA (human) was under 0.1 µM throughout.
Regarding `COc1cccc2c1nc(C(F)F)n2-c1nc(Nc2ccc(F)nc2)nc(N2CCOCC2)n1`, the IC50 at PIK3CB (Human) was 0.1 to 1 µM; against PIK3CD (Human), under 0.1 µM; on PIK3CA (human), under 0.1 µM.
Consider `COc1ccc(Nc2nc(N3CCOCC3)nc(-n3c(C(F)F)nc4c(OC)cccc43)n2)cn1`, for which the IC50 against PIK3CB (Human), against PIK3CD (Human) and on PIK3CA (human) was under 0.1 µM throughout.
As to `FC(F)c1nc2ccccc2n1-c1nc(NCc2ccccn2)nc(N2CCOCC2)n1`, the IC50 against PIK3CB (Human), at PIK3CD (Human) and at PIK3CA (human) was under 0.1 µM in each case.
For `COc1cccc2c1nc(C(F)F)n2-c1nc(N2CCOCC2)nc(N(C)c2cncnc2)n1`, the IC50 on PIK3CD (Human) and on PIK3CA (human) was under 0.1 µM each time.
Consider `FC(F)c1nc2ccccc2n1-c1nc(-c2cccnc2)nc(N2CCOCC2)n1`, for which the IC50 was 0.1 to 1 µM at PIK3CB (Human), under 0.1 µM against PIK3CD (Human) and under 0.1 µM on PIK3CA (human).
For the compound `FC(F)c1nc2ccccc2n1-c1nc(Nc2cnc3ccccc3c2)nc(N2CCOCC2)n1`, the IC50 on PIK3CD (Human) and at PIK3CA (human) was 0.1 to 1 µM each time.
Consider `FC(F)c1nc2ccccc2n1-c1nc(Nc2ccccn2)nc(N2CCOCC2)n1`, for which the IC50 against PIK3CD (Human) and on PIK3CA (human) was under 0.1 µM each time.
For the compound `CS(=O)(=O)c1nc2ccccc2n1-c1nc(Nc2cccnc2)nc(N2CCOCC2)n1`, the IC50 against PIK3CB (Human) is 0.1 to 1 µM; against PIK3CD (Human) it was under 0.1 µM; against PIK3CA (human), 0.1 to 1 µM.
`CN(c1cncnc1)c1nc(N2CCOCC2)nc(-n2c(C(F)F)nc3ccccc32)n1`: the IC50 at PIK3CD (Human) and on PIK3CA (human) was under 0.1 µM throughout.
In the case of `COc1cccc2c1nc(C(F)F)n2-c1nc(N2CCOCC2)c2ncn(-c3cncnc3)c2n1`, the IC50 at PIK3CD (Human) and on PIK3CA (human) was under 0.1 µM each time.
Consider `COc1cccc2c1nc(C(F)F)n2-c1nc(-c2cccnc2)cc(N2CCOCC2)n1`, for which the IC50 at PIK3CD (Human) and at PIK3CA (human) was under 0.1 µM throughout.
Turning to `COc1cccc2c1nc(C(F)F)n2-c1nc(Nc2cccnn2)nc(N2CCOCC2)n1`, the IC50 against PIK3CB (Human) was 0.1 to 1 µM; at PIK3CD (Human), under 0.1 µM; against PIK3CA (human) it was under 0.1 µM.
Regarding `COc1ncc(-c2cc(N3CCOCC3)nc(-n3c(C(F)F)nc4c(OC)cccc43)n2)cn1`, the IC50 is 0.1 to 1 µM at PIK3CD (Human) and under 0.1 µM at PIK3CA (human).
For `FC(F)c1nc2ccccc2n1-c1nc(Nc2cncnc2)nc(N2CCOCC2)n1`, the IC50 was 0.1 to 1 µM against PIK3CB (Human), under 0.1 µM against PIK3CD (Human) and under 0.1 µM against PIK3CA (human).
As for `CNc1ccc(Nc2nc(N3CCOCC3)nc(-n3c(C(F)F)nc4c(OC)cccc43)n2)cn1`, the IC50 was 0.1 to 1 µM at PIK3CB (Human), under 0.1 µM at PIK3CD (Human) and under 0.1 µM against PIK3CA (human).
For the compound `COc1cccc2c1nc(C(F)F)n2-c1nc(Nc2ccc(Cl)nc2)nc(N2CCOCC2)n1`, the IC50 on PIK3CB (Human) was 0.1 to 1 µM; against PIK3CD (Human) it was under 0.1 µM; at PIK3CA (human), under 0.1 µM.
